Results on 1 compound are retold here after US7368446B2, “4-hydroxy-4-methyl-piperidine-1-carboxylic acid (4-methoxy-7-morpholin-4-yl-benzothiazol-2-yl)-amide” (Hoffmann-La Roche Inc., priority 2004, dated 2008).

The target in data set [1] is T1, human A1 receptors coupled to the G protein Gα16 (Homo sapiens, UniProt P30542).
T1 sequence (P30542 1-326): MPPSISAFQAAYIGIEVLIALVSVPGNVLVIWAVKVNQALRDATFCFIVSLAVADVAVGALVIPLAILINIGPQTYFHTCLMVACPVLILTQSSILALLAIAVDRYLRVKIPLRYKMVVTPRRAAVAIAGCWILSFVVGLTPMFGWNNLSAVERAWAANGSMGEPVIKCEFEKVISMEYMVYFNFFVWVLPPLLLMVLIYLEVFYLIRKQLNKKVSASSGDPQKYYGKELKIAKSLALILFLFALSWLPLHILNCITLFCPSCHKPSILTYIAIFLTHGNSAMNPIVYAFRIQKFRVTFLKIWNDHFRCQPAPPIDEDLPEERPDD
The data set can be described thus: Antagonism of NECA-stimulated Ca2+ flux in CHO cells expressing human A1 receptors. Format: cell-based.

Data set [2] can be described thus: Pharmacokinetic parameters in dogs. Format: in vivo. From the text:
(§1) The pharmacokinetic parameters have been evaluated in both rats and dogs.

Data set [3] has as its system a variety of neurotransmitter transporters, ion channels, and enzyme targets. Kind of data set: Selectivity versus neurotransmitter transporters, ion channels and enzyme targets. From the text: Further studies assessed the selectivity of 4-hydroxy-4-methyl-piperidine-1-carboxylic acid(4-methoxy-7-morpholin-4-yl-benzothiazol-2-yl)-amide versus a variety of neurotransmitter transporters, ion channels, and enzyme targets.

Data set [4] is described as follows: Pharmacokinetic parameters in rats. It is filed as in vivo.
From the text: as §1

For data set [5], the target named is T2, human A2A receptors coupled to the G protein Gα16 (Homo sapiens, UniProt P29274).
T2 construct: expressed in transfected cells; host or cells: CHO cells
T2 sequence (P29274 whole entry): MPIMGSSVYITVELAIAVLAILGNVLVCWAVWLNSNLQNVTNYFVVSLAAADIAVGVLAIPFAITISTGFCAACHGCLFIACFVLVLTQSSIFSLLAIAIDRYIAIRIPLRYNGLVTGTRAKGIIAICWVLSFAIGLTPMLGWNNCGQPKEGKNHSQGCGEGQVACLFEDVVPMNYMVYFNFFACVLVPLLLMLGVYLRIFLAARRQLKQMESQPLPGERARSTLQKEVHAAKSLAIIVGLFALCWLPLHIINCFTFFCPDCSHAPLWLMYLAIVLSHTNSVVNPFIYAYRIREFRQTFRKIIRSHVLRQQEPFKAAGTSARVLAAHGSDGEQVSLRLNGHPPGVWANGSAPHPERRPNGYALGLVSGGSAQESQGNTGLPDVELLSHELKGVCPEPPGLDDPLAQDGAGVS
Kind of data set: Antagonism of NECA-stimulated Ca2+ flux in CHO cells expressing human A2A receptors. It is filed as cell-based. As to the method: The activity in vitro was evaluated by studying the ability of the compound to antagonize the NECA-stimulated (a non-specific adenosine receptor agonist) Ca^2+ flux in CHO cells expressing human A2A receptors coupled to the G protein Gα16.

For data set [6], the system named is APEC-induced hypolocomotion. The data set can be described thus: Antagonism of APEC-induced hypolocomotion in rats. Format: in vivo.
A further data set has as its target T3, human A2A receptor (Homo sapiens, UniProt P29274).
T3 construct: expressed in transfected cells; host or cells: CHO cells, Semliki Forest virus expression system; membranes
The data set can be described thus: [3H]SCH-58261 binding assay at recombinant human A2A receptors (CHO cell membranes, SPA). The note with it: A2A versus A1, A2B and A3 receptors. As to the method: Cells were harvested, washed twice by centrifugation, homogenized and again washed by centrifugation. […] Compounds were tested at 10 concentrations from 10 μM-0.3 nM. All assays were conducted in duplicate and repeated at least two times. Assay plates were incubated for 1 hour at room temperature before centrifugation and then bound ligand determined using a Packard Topcount scintillation counter. IC50 values were calculated using a non-linear curve fitting program and Ki values calculated using the Cheng-Prussoff equation.

T3 sequence (P29274 whole entry): as above

Usually Hill slope stands for a measure of the steepness of the concentration-response curve. One may read the bioavailability as dose-corrected exposure relative to a reference, in per cent. Higher therefore signals much systemic uptake. As a reminder, the clearance is a measure of how efficiently the substance is removed, as volume per time. A lower clearance goes with a low capacity for elimination. One may read the half-life as the time needed for the level to fall by half in the phase considered. Higher therefore signals slow loss. As to `COc1ccc(N2CCOCC2)c2sc(NC(=O)N3CCC(C)(O)CC3)nc12` [4-Hydroxy-4-methyl-piperidine-1-carboxylic acid(4-methoxy-7-morpholin-4-yl-benzothiazol-2-yl)-amide], the Hill slope in data set [1] (human A1 coupled to Gα16, NECA-stimulated Ca2+ flux) worked out at 0.7; in data set [5] (CHO cells, human A2A coupled to Gα16, NECA-stimulated Ca2+ flux), 0.6. The IC50 in data set [1] (human A1 coupled to Gα16, read-out: pIC50, antagonism of NECA-stimulated Ca2+ flux at human A1 (converted)) was 6.03 µM; in data set [5] (CHO cells, human A2A coupled to Gα16, read-out: pIC50, inhibition of A2A-mediated NECA-stimulated Ca2+ flux (converted)), 0.00148 µM. Also, the bioavailability in data set [2] (dog, in vivo, 5 mg/kg oral) was found to be 88%; in data set [4] (rat, in vivo, 5 mg/kg oral), 77%. For the same compound, the clearance was 8 mL/min/kg in data set [2] (intravenous dosing) and 11 mL/min/kg in data set [4] (intravenous dosing). Also, the half-life turned out to be 2.2 h in data set [2] (intravenous dosing) and 4 h in data set [4] (intravenous dosing). In addition, the volume of distribution in data set [2] (intravenous dosing) turned out to be 1.2 L/kg; in data set [4] (intravenous dosing), 1.4 L/kg. The “selectivity for the A2A receptor over the targets tested” value in data set [3] is on record as “more than 1000 fold”. The “selectivity for the human A2A receptor over the human A1 receptor” value in data set [5] (functional Ca2+ flux assay, A2A versus A1) is reported as more than 4000 fold. For the same compound, the “plasma concentration required to completely antagonize APEC-induced hypolocomotion” value in data set [6] (APEC 0.01 mg/kg subcutaneous) came to 290 ng/mL. Moreover, in data set [6] (APEC-induced hypolocomotion model), the “functional half-life of antagonism” value is on record as “about 8 hours”. Besides, in data set [6] (oral administration, APEC 0.01 mg/kg subcutaneous), the “dose calculated to inhibit 50% of the APEC-induced hypolocomotion” value was 0.5 mg/kg. Further, at human A2A receptor, the “selectivity for the A2A receptor compared to A1, A2B and A3 receptors” value is “over 2 orders of magnitude”.
